Assay results taken from US20090088482A1, “Compositions and Methods For Treating Heart Failure” (The Trustees Of Columbia University In The City New York, priority 2003, published 2009).
Structures can show the parent of a compound that is named as a salt.

Key:
[1] = Cardiopulmonary exercise testing in a patient with NYHA Class III CHF treated with clenbuterol; assay type: in vivo, human; conditions: 40 mcg b.i.d., six weeks
Procedure: A patient with New York Heart Association Class III CHF with an ICD, currently taking a heart failure medical regimen, including carvedilol (a non-selective beta-blocking agent), lisinopril (an ACE inhibitor), digoxin and spiranolactone, has shortness of breath on moderate exertion and a peak oxygen consumption of 14 ml/kg/min during cardiopulmonary exercising testing.

[2] = CHF patients, 8 mg b.i.d., three weeks; cited from earlier work

## CC(C)(C)NCC(O)c1cc(Cl)c(N)c(Cl)c1 (centres unmarked) [clenbuterol hydrochloride, Clenbuterol hydrochloride]
[1]
  tolerability of dose: well-tolerated

## CC(C)(C)NCC(O)c1ccc(O)c(CO)c1 (centres unmarked) [salbutamol]
[2]
  quadriceps bulk, muscle strength or fatigue, exercise capacity, symptom assessment scores: no change
